Assay results: US11285133B2, “2- or 3-imidazolines as carbapenemases inhibitors” (priority 2017, dated 2022)
Marks after values point to notes of the source that are not given here.

Key:
Type in all cases: biochemical
OXA-48 Enzyme = OXA-48 Enzyme (Klebsiella pneumoniae, UniProt Q6XEC0); test: Imipenem hydrolysis monitored by UV absorbance slope, OXA-48 enzyme; conditions: for inhibition at 10 µM: read-out: OXA-48 Enzyme Inhibition at 10 μM; for OXA-48 Enzyme Inhibition at 10 μM: 10 μM compound
Protocol: (§1) These tests are conducted by comparing UV absorbance slope measurements of impenem alone, and then imipenem with the concerned 3-imidazolines at given concentrations in the presence of the enzyme. It was thus possible to monitor the hydrolysis of imipenem. Lower the value of the slope, the higher is the percentage of inhibition of the enzyme.

NDM-1 Enzyme = NDM-1 Enzyme (Klebsiella pneumoniae, UniProt C7C422); test: Imipenem hydrolysis monitored by UV absorbance slope, NDM-1 enzyme; conditions: 10 μM compound, starred cells in the IC50 column
Protocol: as §1

KPC Enzyme = KPC Enzyme (Klebsiella pneumoniae, UniProt Q9F663); test: Imipenem hydrolysis monitored by UV absorbance slope, KPC enzyme; conditions: for KPC Enzyme percentage of inhibition at 10 μM: 10 μM compound, starred cells in the IC50 column, ND = Not Detectable (at 10 μM); for inhibition at 10 µM: read-out: KPC Enzyme percentage of inhibition at 10 μM
Protocol: as §1

OXA-48 Enzyme, sequence (Q6XEC0 23-265 limits assumed): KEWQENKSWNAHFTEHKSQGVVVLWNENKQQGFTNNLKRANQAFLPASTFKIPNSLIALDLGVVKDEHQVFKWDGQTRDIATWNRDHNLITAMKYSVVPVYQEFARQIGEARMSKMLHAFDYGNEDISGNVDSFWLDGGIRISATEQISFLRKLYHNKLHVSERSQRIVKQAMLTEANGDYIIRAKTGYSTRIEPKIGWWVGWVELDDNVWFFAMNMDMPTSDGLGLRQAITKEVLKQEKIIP
KPC Enzyme, sequence (Q9F663 25-293, looked up): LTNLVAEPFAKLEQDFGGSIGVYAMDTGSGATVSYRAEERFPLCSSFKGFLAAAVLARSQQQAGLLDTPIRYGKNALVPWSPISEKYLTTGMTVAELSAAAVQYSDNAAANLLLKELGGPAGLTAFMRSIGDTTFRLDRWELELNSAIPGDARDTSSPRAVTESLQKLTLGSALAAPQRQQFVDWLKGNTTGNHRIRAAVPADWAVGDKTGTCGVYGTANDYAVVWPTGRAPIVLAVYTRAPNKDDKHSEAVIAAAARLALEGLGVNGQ
NDM-1 Enzyme, sequence (C7C422 29-270, looked up, species assumed): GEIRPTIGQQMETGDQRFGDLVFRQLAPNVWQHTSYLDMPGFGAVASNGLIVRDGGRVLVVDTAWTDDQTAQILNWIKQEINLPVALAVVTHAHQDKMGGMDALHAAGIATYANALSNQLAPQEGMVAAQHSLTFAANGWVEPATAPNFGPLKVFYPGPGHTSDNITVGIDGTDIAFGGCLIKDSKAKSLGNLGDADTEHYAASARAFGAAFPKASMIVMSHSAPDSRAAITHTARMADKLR

Structure (SMILES) | inhibition at 10 µM (OXA-48 Enzyme) | OXA-48 Enzyme Inhibition at 10 μM (OXA-48 Enzyme) | further results
COc1ccc(C2N=C(c3ccccc3)C(C)N2c2ccccc2)cc1 (centres unmarked) [Compound 1] | 9% |  | 
COc1ccc(C2N=C(c3ccccc3)C(C)N2c2ccc(I)cc2)cc1 (centres unmarked) [Compound 2] | 9% |  | 
COc1ccc(C2N=C(c3ccccc3)C(C)N2c2ccc(OC)cc2)cc1 (centres unmarked) [Compound 3] | 11% |  | 
COc1ccc(C2N=C(c3ccccc3)C(C)N2c2ccc(Cl)cc2)cc1 (centres unmarked) [Compound 4] |  | Not Detectable | 
COc1ccc(C2N=C(c3ccccc3)C(C)N2c2ccc(C(F)(F)F)cc2)cc1 (centres unmarked) [Compound 5] | 19% |  | 
COc1ccc(C2N=C(c3ccccc3)C(C)N2c2ccc(Br)cc2)cc1 (centres unmarked) [Compound 6] |  | Not Detectable | inhibition at 10 µM (NDM-1 Enzyme; read-out: NDM-1 Enzyme percentage of inhibition at 10 μM): 20%
COc1ccc(C2=NC(c3ccc(OC)cc3)N(c3ccc(OC)cc3)C2C)cc1 (centres unmarked) [Compound 7] |  | Not Detectable | KPC Enzyme percentage of inhibition at 10 μM (KPC Enzyme): 18%*
COc1ccc(C2=NC(c3ccccc3)N(c3ccccc3)C2C)cc1 (centres unmarked) [Compound 8] |  | Not Detectable | KPC Enzyme percentage of inhibition at 10 μM (KPC Enzyme): 23%*
COc1ccc(C2=NC(c3ccc(OC)cc3)N(c3ccccc3)C2C)cc1 (centres unmarked) [Compound 9] |  | Not Detectable | inhibition at 10 µM (KPC Enzyme): 40%
COc1ccc(C2=NC(c3ccccc3)N(c3ccc(OC)cc3)C2C)cc1 (centres unmarked) [Compound 11] |  | Not Detectable | NDM-1 Enzyme percentage of inhibition at 10 μM (NDM-1 Enzyme): 20%*
COc1ccc(N2C(C)C(c3ccc(Cl)cc3)=NC2c2ccc(Cl)cc2)cc1 (centres unmarked) [Compound 12] |  | Not Detectable | inhibition at 10 µM (KPC Enzyme): 50%
CC1C(c2ccccc2)=NC(c2ccccc2)N1c1ccccc1 (centres unmarked) [Compound 13] |  | Not Detectable | KPC Enzyme percentage of inhibition at 10 μM (KPC Enzyme): 23%*
CC1C(c2ccccc2)=NC(c2ccccc2)N1c1ccc(I)cc1 (centres unmarked) [Compound 14] |  | Not Detectable | 
CC1C(c2ccccc2)=NC(c2ccccc2)N1c1ccc(Br)cc1 (centres unmarked) [Compound 15] |  | Not Detectable | 
CC1C(c2ccccc2)=NC(c2ccccc2)N1c1ccc(Cl)cc1 (centres unmarked) [Compound 16] |  | Not Detectable | KPC Enzyme percentage of inhibition at 10 μM (KPC Enzyme): 18%*
COc1ccc(N2C(C)C(c3ccccc3)=NC2c2ccccc2)cc1 (centres unmarked) [Compound 17] |  | Not Detectable | KPC Enzyme percentage of inhibition at 10 μM (KPC Enzyme): 17%*
CC1C(c2ccc(Cl)cc2)=NC(c2ccc(Cl)cc2)N1c1ccccc1 (centres unmarked) [Compound 18] |  | Not Detectable | KPC Enzyme percentage of inhibition at 10 μM (KPC Enzyme): 14%*
CC1C(c2ccc(Cl)cc2)=NC(c2ccc(Cl)cc2)N1c1ccc(Cl)cc1 (centres unmarked) [Compound 19] |  | 50% | 
C/C(=N\c1ccccc1)C1(c2ccc(Cl)cc2)N=C(c2ccc(Cl)cc2)N(c2ccccc2)C1C (centres unmarked) [Compound 24] | 38% |  | 
C/C(=N\c1ccccc1)C1(c2ccccc2)N=C(c2ccccc2)N(c2ccccc2)C1C (centres unmarked) [Compound 25] |  | Not Detectable | inhibition at 10 µM (KPC Enzyme): 30%
C/C(=N\c1ccc(Cl)cc1)C1(c2ccccc2)N=C(c2ccccc2)N(c2ccc(Cl)cc2)C1C (centres unmarked) [Compound 26] | 22% |  | 
C/C(=N\c1ccc(Br)cc1)C1(c2ccccc2)N=C(c2ccccc2)N(c2ccc(Br)cc2)C1C (centres unmarked) [Compound 27] | 38% |  | 
C/C(=N\c1ccc(Cl)cc1)C1(c2ccc(Cl)cc2)N=C(c2ccc(Cl)cc2)N(c2ccc(Cl)cc2)C1C (centres unmarked) [Compound 28] | 31% |  | 
C/C(=N\c1ccc(Br)cc1)C1(c2ccc(Cl)cc2)N=C(c2ccc(Cl)cc2)N(c2ccc(Br)cc2)C1C (centres unmarked) [Compound 29] | 36% |  | 
